Numbers after ± are expanded uncertainties.
Conditions: Liquid, Vibrating tube method

CCCCn1cc[n+](C)c1C.O=S(=O)([N-]S(=O)(=O)C(F)(F)F)C(F)(F)F
mass density (278.15 K, 100 kPa): 1439.8 ± 0.7 kg/m3 | mass density (278.15 K, 1000 kPa): 1440 ± 0.7 kg/m3 | mass density (278.15 K, 10000 kPa): 1445.9 ± 0.8 kg/m3 | mass density (278.15 K, 20000 kPa): 1452.2 ± 0.9 kg/m3 | mass density (278.15 K, 40000 kPa): 1464 ± 1.1 kg/m3 | mass density (278.15 K, 60000 kPa): 1475 ± 1.4 kg/m3 | mass density (278.15 K, 80000 kPa): 1485.2 ± 1.7 kg/m3 | mass density (278.15 K, 100000 kPa): 1494.7 ± 2.1 kg/m3 | mass density (278.15 K, 120000 kPa): 1503.9 ± 2.6 kg/m3 | mass density (298.15 K, 100 kPa): 1420.9 ± 0.7 kg/m3 | mass density (298.15 K, 1000 kPa): 1421.2 ± 0.7 kg/m3 | mass density (298.15 K, 10000 kPa): 1427.5 ± 0.8 kg/m3 | mass density (298.15 K, 20000 kPa): 1434.1 ± 0.9 kg/m3 | mass density (298.15 K, 40000 kPa): 1446.5 ± 1.1 kg/m3 | mass density (298.15 K, 60000 kPa): 1458 ± 1.4 kg/m3 | mass density (298.15 K, 80000 kPa): 1468.8 ± 1.7 kg/m3 | mass density (298.15 K, 100000 kPa): 1479 ± 2.1 kg/m3 | mass density (298.15 K, 120000 kPa): 1488.7 ± 2.5 kg/m3 | mass density (313.15 K, 100 kPa): 1407.1 ± 0.7 kg/m3 | mass density (313.15 K, 1000 kPa): 1407.5 ± 0.7 kg/m3 | mass density (313.15 K, 10000 kPa): 1414 ± 0.8 kg/m3 | mass density (313.15 K, 20000 kPa): 1420.9 ± 0.9 kg/m3 | mass density (313.15 K, 40000 kPa): 1433.9 ± 1.1 kg/m3 | mass density (313.15 K, 60000 kPa): 1445.8 ± 1.3 kg/m3 | mass density (313.15 K, 80000 kPa): 1457 ± 1.6 kg/m3 | mass density (313.15 K, 100000 kPa): 1467.3 ± 2 kg/m3 | mass density (313.15 K, 120000 kPa): 1477.2 ± 2.4 kg/m3 | mass density (333.15 K, 100 kPa): 1388.5 ± 0.7 kg/m3 | mass density (333.15 K, 1000 kPa): 1389 ± 0.7 kg/m3 | mass density (333.15 K, 10000 kPa): 1396 ± 0.8 kg/m3 | mass density (333.15 K, 20000 kPa): 1403.4 ± 0.8 kg/m3 | mass density (333.15 K, 40000 kPa): 1417.1 ± 1 kg/m3 | mass density (333.15 K, 60000 kPa): 1429.7 ± 1.3 kg/m3 | mass density (333.15 K, 80000 kPa): 1441.4 ± 1.6 kg/m3 | mass density (333.15 K, 100000 kPa): 1452.2 ± 2 kg/m3 | mass density (333.15 K, 120000 kPa): 1462.6 ± 2.4 kg/m3 | mass density (348.15 K, 100 kPa): 1374.7 ± 0.7 kg/m3 | mass density (348.15 K, 1000 kPa): 1375.3 ± 0.7 kg/m3 | mass density (348.15 K, 10000 kPa): 1382.7 ± 0.8 kg/m3 | mass density (348.15 K, 20000 kPa): 1390.4 ± 0.8 kg/m3 | mass density (348.15 K, 40000 kPa): 1404.7 ± 1 kg/m3 | mass density (348.15 K, 60000 kPa): 1417.8 ± 1.3 kg/m3 | mass density (348.15 K, 80000 kPa): 1429.9 ± 1.6 kg/m3 | mass density (348.15 K, 100000 kPa): 1441.1 ± 1.9 kg/m3 | mass density (348.15 K, 120000 kPa): 1451.7 ± 2.3 kg/m3 | mass density (373.15 K, 100 kPa): 1351.1 ± 5 kg/m3 | mass density (373.15 K, 1000 kPa): 1352.3 ± 3 kg/m3 | mass density (373.15 K, 10000 kPa): 1360.4 ± 3 kg/m3 | mass density (373.15 K, 20000 kPa): 1368.7 ± 3 kg/m3 | mass density (373.15 K, 40000 kPa): 1384 ± 3.1 kg/m3 | mass density (373.15 K, 60000 kPa): 1397.9 ± 3.2 kg/m3 | mass density (373.15 K, 80000 kPa): 1410.6 ± 3.3 kg/m3 | mass density (373.15 K, 100000 kPa): 1422.5 ± 3.4 kg/m3 | mass density (373.15 K, 120000 kPa): 1433.6 ± 3.6 kg/m3 | mass density (398.15 K, 100 kPa): 1328.4 ± 5 kg/m3 | mass density (398.15 K, 1000 kPa): 1329.7 ± 3 kg/m3 | mass density (398.15 K, 10000 kPa): 1338.4 ± 3 kg/m3 | mass density (398.15 K, 20000 kPa): 1347.4 ± 3 kg/m3 | mass density (398.15 K, 40000 kPa): 1363.8 ± 3.1 kg/m3 | mass density (398.15 K, 60000 kPa): 1378.5 ± 3.2 kg/m3 | mass density (398.15 K, 80000 kPa): 1392.1 ± 3.3 kg/m3 | mass density (398.15 K, 100000 kPa): 1404.6 ± 3.4 kg/m3 | mass density (398.15 K, 120000 kPa): 1416 ± 3.6 kg/m3

Reference: the NIST ThermoML archive (doi:10.1016/j.jct.2014.09.014)
